In patent US10392422B2, “Macrocyclic broad spectrum antibiotics” (priority 2014, dated 2019):
In brackets after ≈: the same amount, converted by molar mass. Where two headings read alike, the source gives them in different places.

What was measured:
Experiment in all cases: MIC, broth micro-dilution technique (CLSI)
[1] = test system: Escherichia coli MC4100 harboring the IMP4213; format: cell-based; settings: Escherichia coli, 22 h, read-out: MIC (μg/mL) E. coli, Table 1 protocol: serial 2-fold dilutions starting from 64 μg/ml; 35° C., 22 hours
Protocol: (§1) In vitro antimicrobial activity of each compound was determined by measuring minimal inhibitor concentrations (MICs) using the broth micro-dilution technique as approved by the Clinical and Laboratory Standards Institute (CLSI) (Methods for Dilution Antimicrobial Susceptibility Tests for Bacteria that Grow Aerobically; Approved Standard—Eighth Edition. CLSI document M07-A8. Wayne, Pa.: Clinical and Laboratory Standards; 2009). Antibacterial activity was measured against three strains of bacteria: a Methicillin Resistant Staphylococcus aureus strain USA 300 (NRS384); a MRSA COL (NRS100), another Methicillin Resistant Staphylococcus aureus strain; and a strain of Escherichia coli MC4100 harboring the IMP4213, which results in increased outer-membrane permeability (B Martin and Silhavy T. Imp/OstA is required for cell envelope biogenesis in Escherichia coli. (2002) Molecular Microbiology, 45(5), 1289-1302). Cells were inoculated onto plates of Trypyticase Soy Agar or Luria Agar respectively and grown at 35° C. for 20 hours. Inocula suspensions were prepared by scraping cells into 1 ml of testing media (cation adjusted Mueller Hinton Broth supplemented with 0.002% v/v Tween-80) and diluting to a final OD600 nm of 0.01.
(§2) Test compounds were prepared in DMSO at a concentration of 10 mg/ml. These compound stocks were diluted into testing media at a concentration of 64 μg/ml and serial 2-fold dilutions were made in the same media, in 96-well U bottom microtiter dishes, for a total of 10 compound concentrations (Table 1). In modified protocols (Table 2), compound stocks were diluted into testing media at a concentration of 4 μg/mL and serial 2-fold dilutions were made in the same media, in 96-well U bottom microtiter dishes, for a total of 10 compound concentrations. Inocula suspensions were added to the 2-fold serial dilutions of test compounds to a final density of OD OD600 nm of 0.0005 and incubated at 35° C. for 22 hours. […] The results from the protocol starting from a concentration of 64 µg/mL are listed in Table 1 and the results from the modified protocol are shown in Table 2.

[2] = test system: Methicillin Resistant Staphylococcus aureus strain USA 300 (NRS384); format: cell-based; settings: Staphylococcus aureus, 22 h, read-out: MIC (μg/mL) S. aureus
Protocol: as §1, §2

[3] = test system: MRSA COL (NRS100); format: cell-based, Staphylococcus aureus; settings: Staphylococcus aureus, 22 h, read-out: MIC (μg/mL) (COL)
Protocol: as §1, §2

[4] = Table 1 protocol: serial 2-fold dilutions starting from 64 μg/ml, 35° C., 22 hours

SMILES | MIC [1] | MIC [2, 4] | MIC [3, 4] | MIC [2] | MIC [3]
C[C@H](NC(=O)[C@@H]1Cc2ccc(O)c(c2)-c2cc(ccc2O)[C@H](N(C)C(=O)[C@H](CCCCN)NC(=O)c2ccc(-c3ccc(Cl)cc3)cc2)C(=O)N[C@@H](C)C(=O)N1)C(=O)CCc1c[nH]cn1 [Compound 132] | > 64 µg/mL | 32 µg/mL (≈ 35.3 µM) | 8 µg/mL (≈ 8.84 µM) | – | –
C[C@H](NC(=O)[C@@H]1Cc2ccc(O)c(c2)-c2cc(ccc2O)[C@H](N(C)C(=O)[C@H](CCCCN)NC(=O)c2ccc(-c3ccc(Cl)cc3)cc2)C(=O)N[C@@H](C)C(=O)N1)B1O[C@@H]2C[C@@H]3C[C@@H](C3(C)C)[C@]2(C)O1 [Compound 133] | 2 µg/mL (≈ 2.08 µM) | – | – | 2.5 µg/mL (≈ 2.6 µM) | 1.5 µg/mL (≈ 1.56 µM)
C[C@@H]1NC(=O)[C@@H](N(C)C(=O)[C@H](CCCCN)NC(=O)c2ccc(-c3ccc(Cl)cc3)cc2)c2ccc(O)c(c2)-c2cc(ccc2O)C[C@@H](C(=O)N[C@@H](C)C(=O)c2nnn[nH]2)NC1=O [Compound 134] | 45 µg/mL (≈ 51.2 µM) | 2.8 µg/mL (≈ 3.18 µM) | 0.75 µg/mL (≈ 0.853 µM) | – | –
C[C@H](NC(=O)[C@@H]1Cc2ccc(O)c(c2)-c2cc(ccc2O)[C@H](N(C)C(=O)[C@H](CCCCN)NC(=O)c2ccc(-c3ccc(Cl)cc3)cc2)C(=O)N[C@@H](C)C(=O)N1)C(=O)N[C@H]1CCNC1=O [Compound 135] | 64 µg/mL (≈ 70.4 µM) | > 64 µg/mL | 32 µg/mL (≈ 35.2 µM) | – | –
C[C@@H]1NC(=O)[C@@H](N(C)C(=O)[C@H](CCCCN)NC(=O)c2ccc(-c3ccc(Cl)cc3)cc2)c2ccc(O)c(c2)-c2cc(ccc2O)C[C@@H](C(=O)N[C@@H](C)C(=O)N(C)[C@H]2CCNC2=O)NC1=O [Compound 136] | 16 µg/mL (≈ 17.3 µM) | 8 µg/mL (≈ 8.66 µM) | 2 µg/mL (≈ 2.17 µM) | – | –
C[C@H](NC(=O)[C@@H]1Cc2ccc(O)c(c2)-c2cc(ccc2O)[C@H](N(C)C(=O)[C@H](CCCCN)NC(=O)c2ccc(-c3ccc(Cl)cc3)cc2)C(=O)N[C@@H](C)C(=O)N1)C(=O)N[C@@H]1CCNC1=O [Compound 137] | 32 µg/mL (≈ 35.2 µM) | 32 µg/mL (≈ 35.2 µM) | 8 µg/mL (≈ 8.8 µM) | – | –
C[C@@H]1NC(=O)[C@@H](N(C)C(=O)[C@H](CCCCN)NC(=O)c2ccc(-c3ccc(Cl)cc3)cc2)c2ccc(O)c(c2)-c2cc(ccc2O)C[C@@H](C(=O)N[C@@H](C)C(=O)N(C)[C@@H]2CCNC2=O)NC1=O [Compound 138] | 64 µg/mL (≈ 69.3 µM) | – | – | 32 µg/mL (≈ 34.7 µM) | 17 µg/mL (≈ 18.4 µM)
COC(=O)C(=O)[C@H](C)NC(=O)[C@@H]1Cc2ccc(O)c(c2)-c2cc(ccc2O)[C@H](N(C)C(=O)[C@H](CCCCN)NC(=O)c2ccc(-c3ccc(Cl)cc3)cc2)C(=O)N[C@@H](C)C(=O)N1 [Compound 139] | 8 µg/mL (≈ 9.2 µM) | – | – | 11 µg/mL (≈ 12.7 µM) | 4 µg/mL (≈ 4.6 µM)
C[C@@H]1NC(=O)[C@@H](N(C)C(=O)[C@H](CCCCN)NC(=O)c2ccc(-c3ccc(Cl)cc3)cc2)c2ccc(O)c(c2)-c2cc(ccc2O)C[C@@H](C(=O)N[C@@H](C)C(=O)C(=O)O)NC1=O [Compound 140] | 8 µg/mL (≈ 9.35 µM) | – | – | 23 µg/mL (≈ 26.9 µM) | 8 µg/mL (≈ 9.35 µM)
C[C@@H]1NC(=O)[C@@H](N(C)C(=O)[C@H](CCCCN)NC(=O)c2ccc(-c3ccc(Cl)cc3)cc2)c2ccc(O)c(c2)-c2cc(ccc2O)C[C@@H](C(=O)N[C@@H](C)C(=O)C(=O)NCc2cc[nH]n2)NC1=O [Compound 141] | 32 µg/mL (≈ 34.2 µM) | 8 µg/mL (≈ 8.56 µM) | 4 µg/mL (≈ 4.28 µM) | – | –
C[C@@H]1NC(=O)[C@@H](N(C)C(=O)[C@H](CCCCN)NC(=O)c2ccc(-c3ccc(Cl)cc3)cc2)c2ccc(O)c(c2)-c2cc(ccc2O)C[C@@H](C(=O)N[C@@H](C)C(=O)C(=O)N[C@@H]2CCNC2=O)NC1=O [Compound 142] | 16 µg/mL (≈ 17.1 µM) | 64 µg/mL (≈ 68.3 µM) | 16 µg/mL (≈ 17.1 µM) | – | –
C[C@@H]1NC(=O)[C@@H](N(C)C(=O)[C@H](CCCCN)NC(=O)c2ccc(-c3ccc(Cl)cc3)cc2)c2ccc(O)c(c2)-c2cc(ccc2O)C[C@@H](C(=O)N[C@@H](C)/C=C/S(C)(=O)=O)NC1=O [Compound 144] | 32 µg/mL (≈ 36.1 µM) | – | – | 8 µg/mL (≈ 9.01 µM) | 2 µg/mL (≈ 2.25 µM)
C[C@@H]1NC(=O)[C@@H](N(C)C(=O)[C@H](CCCCN)NC(=O)c2ccc(-c3ccc(Cl)cc3)cc2)c2ccc(O)c(c2)-c2cc(ccc2O)C[C@@H](C(=O)N[C@@H](C)/C=C\S(C)(=O)=O)NC1=O [Compound 145] | > 64 µg/mL | – | – | > 64 µg/mL | 64 µg/mL (≈ 72.1 µM)
